This note sets out measurements from BindingDB's records for doi:10.1021/jm060955d (Abbott Laboratories, 2006).

Test in all cases: DPP Inhibition Assay
Holding throughout (settings): pH 7.5; 22 °C

One assay addresses Dipeptidyl peptidase 4 (Homo sapiens, UniProt P27487). On the procedure: (§1) For each concentration of inhibitor or DMSO control, the steady state rates were used to fit a rectangular hyperbola, from which Km and Vmax values were determined by nonlinear regression analysis. The ratio of the Km/Vmax vs inhibitor concentration was plotted and the negative X-intercept, as calculated by linear regression, was the competitive Ki.

Another assay concerns the target Dipeptidyl peptidase 9 (Homo sapiens, UniProt Q86TI2). On the procedure: as §1
For another assay, the target named is Dipeptidyl peptidase 8 (Homo sapiens, UniProt Q6V1X1). On the procedure:
as §1

Structures are written as SMILES.

Chain of Dipeptidyl peptidase 4 (P27487 whole entry): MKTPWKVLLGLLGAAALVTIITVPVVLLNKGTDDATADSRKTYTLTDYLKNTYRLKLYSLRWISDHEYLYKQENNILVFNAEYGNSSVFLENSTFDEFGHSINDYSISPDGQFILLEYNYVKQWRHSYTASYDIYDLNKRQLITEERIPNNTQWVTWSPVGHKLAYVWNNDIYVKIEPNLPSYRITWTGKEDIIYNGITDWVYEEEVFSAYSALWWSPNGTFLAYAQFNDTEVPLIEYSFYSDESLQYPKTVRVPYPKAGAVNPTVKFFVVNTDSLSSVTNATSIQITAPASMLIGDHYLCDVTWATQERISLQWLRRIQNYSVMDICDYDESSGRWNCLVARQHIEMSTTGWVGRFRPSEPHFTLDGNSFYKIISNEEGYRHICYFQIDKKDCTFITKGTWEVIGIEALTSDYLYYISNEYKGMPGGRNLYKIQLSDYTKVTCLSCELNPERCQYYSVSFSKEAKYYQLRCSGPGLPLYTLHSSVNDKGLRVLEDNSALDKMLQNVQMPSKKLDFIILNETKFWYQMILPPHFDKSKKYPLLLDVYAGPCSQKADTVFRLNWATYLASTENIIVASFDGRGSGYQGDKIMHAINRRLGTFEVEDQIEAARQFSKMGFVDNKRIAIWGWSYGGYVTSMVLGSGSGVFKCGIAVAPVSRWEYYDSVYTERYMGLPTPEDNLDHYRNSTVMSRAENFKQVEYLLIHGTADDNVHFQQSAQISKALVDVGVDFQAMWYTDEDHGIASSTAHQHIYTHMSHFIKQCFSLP
Chain of Dipeptidyl peptidase 9 (Q86TI2 whole entry): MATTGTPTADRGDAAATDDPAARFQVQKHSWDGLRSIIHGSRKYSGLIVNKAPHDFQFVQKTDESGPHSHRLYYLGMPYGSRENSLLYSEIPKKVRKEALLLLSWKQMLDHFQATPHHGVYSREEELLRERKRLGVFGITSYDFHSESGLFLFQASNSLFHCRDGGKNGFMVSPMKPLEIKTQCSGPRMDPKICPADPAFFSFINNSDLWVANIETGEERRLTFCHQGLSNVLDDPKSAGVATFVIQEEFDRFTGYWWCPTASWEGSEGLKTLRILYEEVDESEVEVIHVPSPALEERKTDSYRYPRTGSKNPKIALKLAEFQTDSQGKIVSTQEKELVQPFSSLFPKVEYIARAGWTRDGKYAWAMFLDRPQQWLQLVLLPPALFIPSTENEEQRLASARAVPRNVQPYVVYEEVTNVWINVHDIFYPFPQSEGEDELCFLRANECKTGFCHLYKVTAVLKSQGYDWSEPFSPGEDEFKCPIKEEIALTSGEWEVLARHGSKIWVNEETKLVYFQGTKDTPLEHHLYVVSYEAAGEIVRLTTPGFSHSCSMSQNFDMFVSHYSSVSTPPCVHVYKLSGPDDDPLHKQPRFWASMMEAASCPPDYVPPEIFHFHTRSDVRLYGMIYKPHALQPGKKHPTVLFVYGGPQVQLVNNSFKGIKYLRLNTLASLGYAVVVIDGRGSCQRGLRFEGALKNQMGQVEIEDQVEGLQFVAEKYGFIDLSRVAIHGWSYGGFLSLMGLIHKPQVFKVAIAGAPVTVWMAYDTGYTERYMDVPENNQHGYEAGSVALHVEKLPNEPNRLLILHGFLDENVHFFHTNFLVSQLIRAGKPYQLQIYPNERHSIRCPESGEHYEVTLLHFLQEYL
Chain of Dipeptidyl peptidase 8 (Q6V1X1 whole entry): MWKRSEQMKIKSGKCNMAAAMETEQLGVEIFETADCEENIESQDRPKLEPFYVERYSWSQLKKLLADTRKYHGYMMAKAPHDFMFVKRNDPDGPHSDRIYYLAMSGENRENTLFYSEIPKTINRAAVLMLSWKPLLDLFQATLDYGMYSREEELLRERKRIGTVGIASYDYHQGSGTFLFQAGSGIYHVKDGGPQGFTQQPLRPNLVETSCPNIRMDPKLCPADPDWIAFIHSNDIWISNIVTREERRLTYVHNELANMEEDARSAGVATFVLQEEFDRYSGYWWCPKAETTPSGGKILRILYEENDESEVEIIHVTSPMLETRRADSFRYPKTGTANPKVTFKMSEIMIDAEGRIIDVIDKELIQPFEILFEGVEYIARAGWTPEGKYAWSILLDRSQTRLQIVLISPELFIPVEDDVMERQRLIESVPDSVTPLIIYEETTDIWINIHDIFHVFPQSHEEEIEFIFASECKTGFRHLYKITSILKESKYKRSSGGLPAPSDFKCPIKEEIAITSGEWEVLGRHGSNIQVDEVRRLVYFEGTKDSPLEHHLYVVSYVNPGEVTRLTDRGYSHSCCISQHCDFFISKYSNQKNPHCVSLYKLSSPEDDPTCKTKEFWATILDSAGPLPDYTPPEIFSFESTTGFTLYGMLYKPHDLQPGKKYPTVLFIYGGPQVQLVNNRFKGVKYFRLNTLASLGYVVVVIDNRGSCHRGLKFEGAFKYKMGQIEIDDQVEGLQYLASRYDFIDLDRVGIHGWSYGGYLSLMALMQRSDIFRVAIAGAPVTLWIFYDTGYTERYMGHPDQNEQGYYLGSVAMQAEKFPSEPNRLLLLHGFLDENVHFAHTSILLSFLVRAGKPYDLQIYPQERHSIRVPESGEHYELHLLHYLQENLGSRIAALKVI

In the case of `N[C@H]1CC(C(=O)N2CCn3c(nnc3C(F)(F)F)C2)=CC[C@@H]1c1cc(F)c(F)cc1F` [(1S,6R)-3-{[3-(trifluoromethyl)-5H,6H,7H,8H-[1,2,4]triazolo[3,4-a]pyrazin-7-yl]carbonyl}-6-(2,4,5-trifluorophenyl)cyclohex-3-en-1-aminium; 2,2,2-trifluoroacetate], the Ki is 1.3 nM at Dipeptidyl peptidase 4, 4000 nM at Dipeptidyl peptidase 9 and > 30000 nM on Dipeptidyl peptidase 8.
Consider `N[C@H]1CC(c2ccccc2)=CC[C@@H]1c1ccccc1Cl` [(1S,6R)-6-(2-chlorophenyl)-3-phenylcyclohex-3-en-1-aminium; 2,2,2-trifluoroacetate], for which the Ki on Dipeptidyl peptidase 4 was < 140 nM.
